The results in this text go back to US20200308240A1, “Targeting Innate Immune Signaling in Neuroinflammation and Neurodegeneration” (The General Hospital Corporation, priority 2016, published 2020).

“Also recorded” adds a separate entry of the source.

Experiment [1] concerns neuronal differentiated ReNcell VM cells. The experiment in a line: dsRNA mimetic (PolyIC)-induced neurodegeneration in differentiated ReNVM neurons, cell viability by Celltiter-Glo. The experiment is classed as cell-based, human. The conditions noted are these: for rescue of PolyIC (dsRNA)-induced neurodegeneration / neuronal death: differentiated ReNVM human neurons transfected with PolyIC, FIGS. 4B-N; for viability of ReNVM neurons transfected with PolyIC: escalating doses of poly IC, 48 hours (2 days), relative to mock-transfected neurons, FIG. 3A-F. The protocol:
FIGS. 3A-G. dsRNA induces a Type I interferon response and is sufficient to induced neurodegeneration in human neurons. A-E) Representative transmitted light images of differentiated ReNVM neurons transfected with increasing doses of PolyIC, a dsRNA mimetic, showing a dose-dependent loss of neurons after 48 hours. […] G) Western blots showing the elevated protein expression of type I interferon-stimulated genes in differentiated ReNVM cells 24 hour post transfection with PolyIC, using indicated antibodies.
FIGS. 4A-N. Inhibitors of key type I interferon regulators rescues PolyIC induced neurodegeneration in ReNVM cells.
Building on those findings, a novel in vitro human neuronal culture system was developed to recapitulate this pathophysiologic process. These cells can be used, e.g., to identify compounds that modulate dsRNA-mediated neurodegeneration, as a methodology for screening and validation of hits for the novel targets and related targets on the pathway for neurodegeneration and Alzheimer's disease pathogenesis as well as for purposes of drug screening and validation with the primary outcome being loss of neurons. Briefly, a dsRNA-mimetic was introduced into a human neural progenitor immortalized cell line, ReN VM cells, in vitro. There was profound induction of the Type I interferon signaling pathways that were stimulated in mouse models of neurodegeneration including the pattern recognition receptors, PKR and MDA5. Importantly, accelerated neuronal death was also observed over 48 hours that was dependent on the dose of the dsRNA introduced into the cytoplasm. These cell-based phenotypes in human neurons recapitulated and extended findings (described in PCT/US2015/060401) outlining cytoplasmic double-stranded RNA mediated neuronal cell death in multiple transgenic mouse lines (Nd1, Nd2, and Nd3), each expressing a different gene, and a model of induced cytoplasmic dsRNA of GFP causing accelerated neurodegeneration.
Deploying this cell-based in vitro model of accelerated neurodegeneration of human neurons, a number of inhibitors of Type I interferon signaling pathways were tested.
To determine if cytoplasmic dsRNA is sufficient to mediate neurodegeneration in human neurons, we transfected neuronal differentiated ReNcell VM cells 27, 28, a human neural cell line derived from ventral mesencephalon, with escalating doses of poly IC (which mimics a GC dinucleotide repeat). […] We observed a marked induction of the pattern recognition receptors MDA5 and PKR that are cytoplasmic receptors for dsRNA (FIG. 3G) and TBK1 phosphorylation (FIG. 4A). In addition, downstream signaling events, i.e., MAVS reduction and IRF3 translocation to the nucleus for the MDA5 pathway, and phosphorylation of p38 and HSP27 for the PKR pathway, indicate that that neurons are capable of mounting this innate immune response intrinsically. […]

The subject of the next experiment is IRF3 phosphorylation. The experiment in a line: IRF3 phosphorylation in poly-IC transfected ReNcell VM neurons. The experiment is classed as cell-based, human. Particulars: poly-IC transfected ReNcell VM neurons treated with inhibitor. The source says:
To determine if cytoplasmic dsRNA is sufficient to mediate neurodegeneration in human neurons, we transfected neuronal differentiated ReNcell VM cells 27, 28, a human neural cell line derived from ventral mesencephalon, with escalating doses of poly IC (which mimics a GC dinucleotide repeat). […] We observed a marked induction of the pattern recognition receptors MDA5 and PKR that are cytoplasmic receptors for dsRNA (FIG. 3G) and TBK1 phosphorylation (FIG. 4A). In addition, downstream signaling events, i.e., MAVS reduction and IRF3 translocation to the nucleus for the MDA5 pathway, and phosphorylation of p38 and HSP27 for the PKR pathway, indicate that that neurons are capable of mounting this innate immune response intrinsically.
Many mutations in the TBK1 coding region are linked to ALS and FTD in an autosomal dominant manner. Expression of these mutant isoforms have been difficult to detect at the RNA and protein levels, giving rise to the hypothesis that haploinsufficiency of TBK1 drives neurodegeneration. Inhibition of TBK1 kinase activity challenge the hypothesis that LOF mutations cause the pathogenesis. TBK1 is activated by polyubiquitination and regulated by proteins binding to its CCH domain, including optineurin which binds TBK1, is mutated in some familial forms of ALS that abrogates inhibition of IRF3 4.

On to `CC1(C)C(=O)C=C[C@]2(C)[C@H]3CC[C@@]4(C)[C@H](c5ccoc5)OC(=O)[C@H]5O[C@]54[C@]3(C)C=C[C@@H]12` [7DG], for which the “rescue of PolyIC (dsRNA)-induced neurodegeneration / neuronal death” value in experiment [1] is recorded as “did not show rescue of the neuronal death phenotype”.
Still for that read-out and setting: for `Cc1cc(Nc2nc(N[C@@H](C)c3ncc(F)cn3)ncc2Cl)n[nH]1` [AZD1480, 5-Chloro-N2-[(1S)-1-(5-fluoro-2-pyrimidinyl)ethyl]-N4-(5-methyl-1H-pyrazol-3-yl)-2,4-pyrimidinediamine] the value was “rescued PolyIC induced neurodegeneration”; for `CCS(=O)(=O)N1CC(CC#N)(n2cc(-c3ncnc4[nH]ccc34)cn2)C1` [Baricitinib, 2-(3-(4-(7H-pyrrolo[2,3-d]pyrimidin-4-yl)-1H-pyrazol-1-yl)-1-(ethylsulfonyl)azetidin-3-yl)acetonitrile], “blocked neurodegeneration in dose dependent manner; also recorded: rescued PolyIC induced neurodegeneration”; for `O=C1Nc2ccc3ncsc3c2/C1=C/c1cnc[nH]1` [C16], “did not show rescue of the neuronal death phenotype”.
As for `N#CCNC(=O)c1ccc(-c2ccnc(Nc3ccc(N4CCOCC4)cc3)n2)cc1` [CYT387, N-(Cyanomethyl)-4-[2-[[4-(4-morpholinyl)phenyl]amino]-4-pyrimidinyl]benzamide], the “rescue of PolyIC (dsRNA)-induced neurodegeneration / neuronal death” value in experiment [1] is “blocked neurodegeneration in dose dependent manner; also recorded: rescued PolyIC induced neurodegeneration”.
On the same count and under the same terms, in the case of `O=C(Nc1nc2cccc(-c3ccc(CN4CCS(=O)(=O)CC4)cc3)n2n1)C1CC1` [Filgotinib, N-[5-[4-[(1,1-Dioxido-4-thiomorpholinyl)methyl]phenyl][1,2,4]triazolo[1,5-a]pyridin-2-yl]cyclopropanecarboxamide] it was “blocked neurodegeneration in dose dependent manner; also recorded: rescued PolyIC induced neurodegeneration”.
Consider `Cl.O=C(NN1CCC(N2CCCC2)CC1)c1ccc(Nc2nccc(-c3cc4ccccc4s3)n2)cc1` [IKK16, N-(4-Pyrrolidin-1-yl-piperidin-1-yl)-[4-(4-benzo[b]thiophen-2-yl-pyrimidin-2-ylamino)phenyl]carboxamide hydrochloride], for which, in the experiment with IRF3 phosphorylation, the IRF3 phosphorylation result is given as “reduced IRF3 phosphorylation”. For the same compound, the “rescue of PolyIC (dsRNA)-induced neurodegeneration / neuronal death” value in experiment [1] (hydrochloride) is recorded as “reversed poly-IC-mediated neurodegeneration; also recorded: rescued PolyIC induced neurodegeneration”.
Turning to `O=C(NCCCNc1nc(Nc2cccc(NC(=O)N3CCCC3)c2)ncc1I)c1cccs1` [NK-6], the “rescue of PolyIC (dsRNA)-induced neurodegeneration / neuronal death” value is recorded as “dose-dependent rescue of dsRNA-mediated neurodegeneration” in experiment [1] and “rescues poly-IC-mediated neurodegeneration in a dose dependent manner; also recorded: rescued PolyIC induced neurodegeneration” in experiment [1] (listed as BX795).
For `NC(=O)Nc1sc(-c2ccc(F)cc2)cc1C(N)=O` [NK-7, 2-[(Aminocarbonyl)amino]-5-(4-fluorophenyl)-3-thiophenecarboxamide], the IRF3 phosphorylation entry in the experiment on IRF3 phosphorylation is “reduced IRF3 phosphorylation”. For the same compound, the “rescue of PolyIC (dsRNA)-induced neurodegeneration / neuronal death” value in experiment [1] is reported as “dose-dependent rescue of dsRNA-mediated neurodegeneration”; in experiment [1] (listed as TPCA1), “reversed poly-IC-mediated neurodegeneration”; in experiment [1] (listed as TPCA-1), “rescued PolyIC induced neurodegeneration”.
In the case of `CC(C)c1ccc2oc3nc(N)c(C(=O)O)cc3c(=O)c2c1` [NK-10, amlexanox], the results for the “rescue of PolyIC (dsRNA)-induced neurodegeneration / neuronal death” value in experiment [1] and in experiment [1] (listed as Amlexanox) were “rescued neurodegeneration; also recorded: dose-dependent rescue of dsRNA-mediated neurodegeneration” and “rescued PolyIC induced neurodegeneration”, respectively.
As for `CNC(=O)c1ccc(C)c(-n2c(C)cc(OCc3ccc(F)cc3F)c(Br)c2=O)c1` [PH 797804], the “rescue of PolyIC (dsRNA)-induced neurodegeneration / neuronal death” value in experiment [1] is “did not show rescue of the neuronal death phenotype”.
In the case of `C1=C/COCc2cc(ccc2OCCN2CCCC2)Nc2nccc(n2)-c2cccc(c2)COC/1` [Pacritinib-1, 11-(2-pyrrolidin-1-yl-ethoxy)-14,19-dioxa-5,7,26-triaza-tetracyclo[19.3.1.1(2,6).1(8,12)]heptacosa-1(25),2(26),3,5,8,10,12(27),16,21,23-decaene], in experiment [1], the “rescue of PolyIC (dsRNA)-induced neurodegeneration / neuronal death” value is “blocked neurodegeneration in dose dependent manner; also recorded: rescued PolyIC induced neurodegeneration”.
On the same count and under the same terms, in the case of `Cc1cnc(Nc2ccc(OCCN3CCCC3)cc2)nc1Nc1cccc(S(=O)(=O)NC(C)(C)C)c1` [TG101348, 2.N-tert-butyl-3-(5-methyl-2-(4-(2-(pyrrolidin-1-yl)ethoxy)phenylamino)pyrimidin-4-ylamino)benzenesulfonamide] it was “blocked neurodegeneration in dose dependent manner; also recorded: rescued PolyIC induced neurodegeneration”; in that of `C[C@@H]1CCN(C(=O)CC#N)C[C@@H]1N(C)c1ncnc2[nH]ccc12` [Tofacitinib, 3-((3R,4R)-4-methyl-3-(methyl(7H-pyrrolo [2,3-d]pyrimidin-4-yl)amino)piperidin-1-yl)-3-oxopropanenitrile], “blocked neurodegeneration in dose dependent manner; also recorded: rescued PolyIC induced neurodegeneration”; in that of `O=C(Nc1ccc(-c2ccnc(Nc3ccc(N4CCOCC4)cc3)n2)cc1)[C@@H]1CCCN1` [XL019, (S)-N-(4-(2-((4-morpholinophenyl)amino)pyrimidin-4-yl)phenyl)pyrrolidine-2-carboxamide], “blocked neurodegeneration in dose dependent manner; also recorded: rescued PolyIC induced neurodegeneration”.
For PolyIC, the figures for the “viability of ReNVM neurons transfected with PolyIC” value in experiment [1] and in experiment [1] (listed as poly IC) were “dose-dependent loss in cell viability” and “dose-dependent reduction in their viability”, respectively.
